Results taken from patent US20060069132A1, “Azolecarboxamide herbicides” (priority 2004, published 2006).

Assays:
[1] = system: rice; experiment: Test B pre-/postemergence herbicide test; type: in vivo, Oryza sativa; settings: 0 = no effect, 100 = complete control, preemergence
Summary of the method: (§1)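 Formulation: non-phytotoxic solvent mix with surfactant. Timing: preemergence on seed and postemergence on 2–18 cm plants, applied concurrently. Readout after 13–15 d greenhouse: visual 0–100 control rating against controls.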

[2] = system: lambsquarters; experiment: Test B pre-/postemergence herbicide test; type: in vivo, Chenopodium album; settings: for Lambsquarters plant response rating: postemergence, scale 0 (no effect) to 100 (complete control)
Summary of the method: as §1

[3] = system: large crabgrass; experiment: Test B pre-/postemergence herbicide test; type: in vivo, Digitaria sanguinalis; settings: for Crabgrass, Large plant response rating: postemergence, scale 0 (no effect) to 100 (complete control)
Summary of the method: as §1

[4] = system: barnyardgrass; experiment: Test B flooded paddy test; type: in vivo, Echinochloa crus-galli; settings: 1000 g ai/ha, scale 0 to 100 (0 no effect, 100 complete control)
Summary of the method: (§2)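 Plants grow to 1- to 4-leaf stage (2–18 cm) for postemergence spraying, or to 2-leaf stage for the paddy test. Formulated compound is applied. Greenhouse holding lasts 13–15 days. Response is scored visually relative to controls, 0 no effect to 100 complete control; a dash means no result.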

[5] = system: corn; experiment: Test B pre-/postemergence herbicide test; type: in vivo, Zea mays; settings: for Corn plant response rating: postemergence, scale 0 (no effect) to 100 (complete control)
Summary of the method: as §1

[6] = system: ducksalad; experiment: Test C flooded paddy test; type: in vivo, Heteranthera limosa
[7] = system: Surinam grass; experiment: Test B pre-/postemergence herbicide test; type: in vivo, Urochloa decumbens; settings: for Surinam Grass plant response rating: postemergence, scale 0 (no effect) to 100 (complete control)
Summary of the method: as §1

[8] = system: rice; experiment: Test C flooded paddy test; type: in vivo, Oryza sativa
Summary of the method: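 Plants were grown to the 1- to 4-leaf stage (2–18 cm) and then treated postemergence, or grown to the 2-leaf stage for the flooded paddy test. They were held in a greenhouse for 12 to 14 days and then scored by eye against controls, where 0 is no effect and 100 is complete control.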

[9] = system: morningglory; experiment: Test B pre-/postemergence herbicide test; type: in vivo, Ipomoea coccinea; settings: for Morningglory plant response rating: postemergence, scale 0 (no effect) to 100 (complete control)
Summary of the method: (§3)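 Species tested were Echinochloa crus-galli, Ipomoea coccinea, Xanthium strumarium and Oryza sativa, treated both before emergence and at the 1- to 4-leaf stage; rice and barnyardgrass were also tested under flooding at 2 leaves. Greenhouse incubation lasted 13–15 days before visual 0–100 scoring.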

[10] = system: barnyardgrass; experiment: Test C flooded paddy test; type: in vivo, Echinochloa crus-galli
Summary of the method: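 Weeds and wheat were sprayed after emergence, at a height of 2 to 18 cm (1–4 leaves), and paddy barnyardgrass was flooded and treated at two leaves. Assessment took place 12–14 days later in the greenhouse on a 0-to-100 visual control scale. A dash means no result was obtained.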

[11] = system: pigweed; experiment: Test B pre-/postemergence herbicide test; type: in vivo, Amaranthus retroflexus; settings: for Pigweed plant response rating: postemergence, scale 0 (no effect) to 100 (complete control)
Summary of the method: as §1

[12] = system: ducksalad; experiment: Test B flooded paddy test; type: in vivo, Heteranthera limosa; settings: 1000 g ai/ha, scale 0 to 100 (0 no effect, 100 complete control)
Summary of the method: as §2

[13] = system: rice; experiment: Test B flooded paddy test; type: in vivo, Oryza sativa; settings: 1000 g ai/ha, scale 0 to 100 (0 no effect, 100 complete control)
Summary of the method: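 Scale 0–100: zero equals no visible effect, 100 complete control, judged by eye relative to controls. Timing: 13 to 15 days in greenhouse post-treatment. Growth stage at spraying: two leaves (paddy) or one to four leaves, 2–18 cm (postemergence).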

[14] = system: barnyardgrass; experiment: Test B pre-/postemergence herbicide test; type: in vivo, Echinochloa crus-galli; settings: for Barnyardgrass plant response rating: postemergence, scale 0 (no effect) to 100 (complete control)
Summary of the method: as §3

[15] = system: wheat; experiment: Test B postemergence herbicide test; type: in vivo, Triticum aestivum; parameters: key to Wheat plant response rating: 0 = no effect, 100 = complete control; settings: postemergence, visual rating, scale 0 (no effect) to 100 (complete control)
Summary of the method: (§4)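 After treating 2-leaf paddy plants or 2–18 cm postemergence plants (1 to 4 leaves) with formulated chemical, researchers kept them in a greenhouse for 13–15 days. Effects were judged visually versus controls: 0 indicates none, 100 total control.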

[16] = system: blackgrass; experiment: Test B postemergence herbicide test; type: in vivo, Alopecurus myosuroides; settings: postemergence, visual rating, scale 0 (no effect) to 100 (complete control)
Summary of the method: as §2

[17] = system: wild oat; experiment: Test B postemergence herbicide test; type: in vivo, Avena fatua; settings: postemergence, visual rating, scale 0 (no effect) to 100 (complete control)
Summary of the method: as §4

[18] = system: velvetleaf; experiment: Test B pre-/postemergence herbicide test; type: in vivo, Abutilon theophrasti; settings: for Velvetleaf plant response rating: postemergence, scale 0 (no effect) to 100 (complete control)
Summary of the method: as §1

[19] = system: giant foxtail; experiment: Test B pre-/postemergence herbicide test; type: in vivo, Setaria faberi; settings: for Foxtail, Giant plant response rating: postemergence, scale 0 (no effect) to 100 (complete control)
Summary of the method: as §1

[20] = system: small flower umbrella sedge; experiment: Test B flooded paddy test; type: in vivo, Cyperus difformis; settings: 1000 g ai/ha, scale 0 to 100 (0 no effect, 100 complete control)
Summary of the method: as §2

[21] = system: cocklebur; experiment: Test B pre-/postemergence herbicide test; type: in vivo, Xanthium strumarium; settings: for Cocklebur plant response rating: postemergence, scale 0 (no effect) to 100 (complete control)
Summary of the method: as §3

[22] = system: smallflower umbrella sedge; experiment: Test C flooded paddy test; type: in vivo, Cyperus difformis
[23] = 125 g ai/ha, 0 = no effect, 100 = complete control, preemergence
[24] = 500 g ai/ha, visual rating, 0 = no effect, 100 = complete control, preemergence
[25] = 62 g ai/ha, scale 0 to 100 (0 no effect, 100 complete control)
[26] = 125 g ai/ha, scale 0 to 100 (0 no effect, 100 complete control)
[27] = 250 g ai/ha, scale of 0 to 100, 0 is no effect, 100 is complete control
[28] = 500 g ai/ha, visual rating after 12 to 14 days, scale 0 to 100 (0 no effect, 100 complete control)

CCc1nc(C(C)(C)C)sc1C(=O)Nc1cc(C(=O)N(C)CC)ccc1F [Compound 231]
Rice plant response rating (0 to 100 scale) ([1]; 125 g ai/ha): 20
Plant response rating, Rice ([1]; 500 g ai/ha, visual rating): 50
Lambsquarters plant response rating (0 to 100 scale) [2, 23]: 80
Plant response rating, Lambsquarters [2, 24]: 100
Lambsquarters plant response rating ([2]; 125 g ai/ha, visual rating): 60
Lambsquarters plant response rating ([2]; 500 g ai/ha, visual rating): 70
Crabgrass, Large plant response rating (0 to 100 scale) [3, 23]: 30
Plant response rating, Crabgrass, Large [3, 24]: 90
Crabgrass, Large plant response rating ([3]; 125 g ai/ha, visual rating): 20
Crabgrass, Large plant response rating ([3]; 500 g ai/ha, visual rating): 20
Barnyardgrass plant response rating [4]: 80
Corn plant response rating (0 to 100 scale) [5, 23]: 0
Plant response rating, Corn [5, 24]: 50
Corn plant response rating ([5]; 125 g ai/ha, visual rating): 10
Corn plant response rating ([5]; 500 g ai/ha, visual rating): 20
Ducksalad plant response rating [6, 25]: 10
Ducksalad plant response rating [6, 26]: 60
Ducksalad plant response rating [6, 27]: 70
Plant response rating, Ducksalad [6, 28]: 80
Surinam Grass plant response rating (0 to 100 scale) [7, 23]: 20
Plant response rating, Surinam Grass [7, 24]: 60
Surinam Grass plant response rating ([7]; 125 g ai/ha, visual rating): 10
Surinam Grass plant response rating ([7]; 500 g ai/ha, visual rating): 30
Rice plant response rating [8, 25]: 30
Rice plant response rating [8, 26]: 55
Rice plant response rating [8, 27]: 75
Plant response rating, Rice [8, 28]: 80
Morningglory plant response rating (0 to 100 scale) [9, 23]: 10
Plant response rating, Morningglory [9, 24]: 10
Morningglory plant response rating ([9]; 125 g ai/ha, visual rating): 20
Morningglory plant response rating ([9]; 500 g ai/ha, visual rating): 70
Barnyardgrass plant response rating [10, 25]: 40
Barnyardgrass plant response rating [10, 26]: 45
Barnyardgrass plant response rating [10, 27]: 75
Plant response rating, Barnyardgrass [10, 28]: 80
Pigweed plant response rating (0 to 100 scale) [11, 23]: 60
Plant response rating, Pigweed [11, 24]: 100
Pigweed plant response rating ([11]; 125 g ai/ha, visual rating): 50
Pigweed plant response rating ([11]; 500 g ai/ha, visual rating): 70
Ducksalad plant response rating [12]: 90
Rice plant response rating [13]: 80
Barnyardgrass plant response rating (0 to 100 scale) [14, 23]: 50
Plant response rating, Barnyardgrass [14, 24]: 80
Barnyardgrass plant response rating ([14]; 125 g ai/ha, visual rating): 10
Barnyardgrass plant response rating ([14]; 500 g ai/ha, visual rating): 40
Wheat plant response rating ([15]; 125 g ai/ha): 20
Wheat plant response rating ([15]; 500 g ai/ha): 40
Blackgrass plant response rating ([16]; 125 g ai/ha): 20
Blackgrass plant response rating ([16]; 500 g ai/ha): 30
Oat, Wild plant response rating ([17]; 125 g ai/ha): 20
Oat, Wild plant response rating ([17]; 500 g ai/ha): 40
Velvetleaf plant response rating (0 to 100 scale) [18, 23]: 30
Plant response rating, Velvetleaf [18, 24]: 90
Velvetleaf plant response rating ([18]; 125 g ai/ha, visual rating): 30
Velvetleaf plant response rating ([18]; 500 g ai/ha, visual rating): 50
Foxtail, Giant plant response rating (0 to 100 scale) [19, 23]: 60
Plant response rating, Foxtail, Giant [19, 24]: 90
Foxtail, Giant plant response rating ([19]; 125 g ai/ha, visual rating): 20
Foxtail, Giant plant response rating ([19]; 500 g ai/ha, visual rating): 30
Sedge, Umbrella plant response rating [20]: 90
Cocklebur plant response rating (0 to 100 scale) [21, 23]: 0
Plant response rating, Cocklebur [21, 24]: 30
Cocklebur plant response rating ([21]; 125 g ai/ha, visual rating): 10
Cocklebur plant response rating ([21]; 500 g ai/ha, visual rating): 40
Sedge, Umbrella plant response rating [22, 25]: 10
Sedge, Umbrella plant response rating [22, 26]: 55
Sedge, Umbrella plant response rating [22, 27]: 65
Plant response rating, Sedge, Umbrella [22, 28]: 75
